Measurements as given in PubChem BioAssay AID463199 (Broad Institute, 2010).
Activity calls are given as the source filed them.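 Rule for the calls: active = AC50, the dose giving half-maximal effect, exceeds a fixed cutoff for a compound that rescues yeast growth under heat; inactive = the rest, inconclusive results apart.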

system: S. cerevisiae Burl-1 ts mutant growth, BacTiter-Glo, 38.5C 24 h; assay: growth induction of Burl-1 ts yeast mutant, dose response, counter-screen for SUMOylation pathway inhibitor project, whole organism, S. cerevisiae, luminescence (AID 463199)

Compound	AC50
O=C1C2CC=C(Cl)CC2C(=O)N1c1ncn[nH]1 (centres undefined)	> 42 µM (inactive)
Cn1c(CCN2CCOCC2)nc2cc(NC(=O)COc3ccccc3)ccc21	> 42 µM (inactive)
Cc1cc(C)cc(N(CC(=O)Nc2cccc(C)n2)S(=O)(=O)c2c(C)noc2C)c1	> 42 µM (inactive)
COc1ccccc1/C=C/C(=O)NC(=S)N1CCOCC1	> 42 µM (inactive)
CC1CCCCC1N=CC1=C(O)CC(C)(C)CC1=O (centres undefined)	> 42 µM (inactive)
CCC1CCCCN1C(=O)CSc1nc2c([nH]c3ccccc32)c(=O)n1C (centres undefined)	> 42 µM (inactive)
Cc1ccc(Oc2ccccc2NC(=O)C2=COCCO2)cc1	> 42 µM (inactive)
COc1ccc(NC(=O)CSc2nnc(-c3ccccn3)n2-c2ccccc2)cc1OC	> 42 µM (inactive)
Cc1cc(C)cc(OC(=O)CS(=O)c2ccc(C(F)(F)F)cc2[N+](=O)[O-])c1 (centres undefined)	> 42 µM (inactive)
Nc1nc2ccccc2cc1-c1cccs1	> 42 µM (inactive)
Cn1nc(C(=O)NCCc2ccc(Cl)cc2)c2c1-c1ccccc1S(=O)(=O)C2	> 42 µM (inactive)
Cc1ccc(NC(=O)CN2CCN(CCN=CC3=C(O)CC(C)(C)CC3=O)CC2)cc1	> 42 µM (inactive)
O=C(Nc1nnc(-c2ccco2)o1)c1ccc(S(=O)(=O)N2CCCC2)cc1	> 42 µM (inactive)
C[C@H]1O[C@H]1P(=O)(O)O	> 42 µM (inactive)
CCCCCCCCCCOC(=O)Cn1c(COc2ccc(OC)cc2)[n+](C)c2ccccc21	> 42 µM (inactive)
O=C(Nc1ccc2oc(-c3ccccc3F)nc2c1)c1ncn[nH]1	> 42 µM (inactive)
COc1ccc(-c2[nH]nc3c2C(c2ccncc2)C(C#N)=C(N)O3)cc1 (centres undefined)	> 42 µM (inactive)
COc1cc(NC(=O)c2ccccc2F)c(OC)cc1NC(=O)CN1CCCCC1	> 42 µM (inactive)
CCOC(=O)Nc1sc(=S)n(C)c1C	> 42 µM (inactive)
Nc1ccc(S(=O)(=O)NNC(=O)C(=O)NNc2ccccc2)cc1	> 42 µM (inactive)
COc1cccc(N2CCN(C3CCCC(C)C3)CC2)c1 (centres undefined)	> 42 µM (inactive)
COc1cc(/C=N/NC2=NS(=O)(=O)c3ccccc32)cc(OC)c1OC	> 42 µM (inactive)
Cc1ccc2nc(/C(C#N)=C\c3cc(O)ccc3[N+](=O)[O-])[nH]c2c1	> 42 µM (inactive)
Cc1ccc(NS(=O)(=O)c2c(C)[nH]c(C)c2C(=O)N2CCCCC2)c(Cl)c1	> 42 µM (inactive)
O=C(COC(=O)c1ccccc1SCC(=O)N1CCCC1)NC1CCCCC1	> 42 µM (inactive)

Compound	AC50
CCOc1cc(/C=C2\NC(=O)NC2=O)ccc1OC(C)C(=O)O (centres undefined)	> 42 µM (inactive)
S=C(Nc1ccc(Cl)cc1)N1CCN(Cc2ccccc2)CC1	> 42 µM (inactive)
Cc1cc(C)cc(C(=O)NC(CC(N)=O)c2ccc(NCCN3CCOCC3)c([N+](=O)[O-])c2)c1 (centres undefined)	> 42 µM (inactive)
CCN(CC)CCCNC(=O)C1c2ccccc2C(=O)N(CCOC)C1c1ccc(F)cc1 (centres undefined)	> 21 µM (inactive)
COc1ccc(-c2cc(=O)c3cc(O)ccc3o2)cc1	> 42 µM (inactive)
CCCSc1nc(=O)n2cccc(C)c2n1	> 42 µM (inactive)
Cc1ccc(C)n1-n1cnc2sc3c(c2c1=O)CCCCC3	> 42 µM (inactive)
COc1ccccc1NC(=O)c1nn(-c2cccc(C(F)(F)F)c2)ccc1=O	12 µM
Cc1cc(F)ccc1S(=O)(=O)Nc1ccccc1C(=O)Nc1ccc2[nH]c(=O)[nH]c2c1	> 42 µM (inactive)
N#CC1=C(N)OC2=C(C(=O)CCC2)C1C1CC=CCC1 (centres undefined)	> 42 µM (inactive)
COc1cccc2[nH]c(=O)c(-c3ccccc3)cc12	> 42 µM (inactive)
Cc1c(O)ccc(C(=O)CN2C(=O)c3ccccc3C2=O)c1O	> 42 µM (inactive)
CS(=O)(=O)N(CC(=O)N1CCCCCC1)Cc1ccc(Cl)cc1	> 42 µM (inactive)
COc1ccc(N2CCN(CCCNC(=O)C(=O)c3c(C)[nH]c4ccccc34)CC2)cc1	> 21 µM (inactive)
COc1ccc(NS(=O)(=O)c2cccc(C(=O)NCCCn3ccnc3)c2)cc1	> 42 µM (inactive)
Cn1c(Cn2nnc3ccccc32)nnc1SCC(=O)c1ccc(F)cc1	> 42 µM (inactive)
Cc1ccc(NC(=O)COc2ccccc2C(=O)NCCN(C)C)cc1	> 42 µM (inactive)
CCCCc1nnc(NC(=O)CSc2nc(O)c(-c3ccccc3)c(=O)[nH]2)s1	> 42 µM (inactive)
CC(=O)Nc1ccc(CN2CCCC(CO)(Cc3cccc(Cl)c3)C2)cc1 (centres undefined)	> 42 µM (inactive)
CCC(=O)N(Cc1ccc2c(c1)OCO2)Cc1cc2cc(OC)ccc2[nH]c1=O	> 42 µM (inactive)
COCCN(C(=O)c1csnn1)C(C(=O)NC1CCCCC1)c1ccccc1 (centres undefined)	> 42 µM (inactive)
COc1ccc(C(=O)NCC(=O)Nc2ccccc2)cc1OC	> 42 µM (inactive)
CCOC(=O)N1CCN(C(=O)c2ccc(CS(=O)(=O)c3c(Cl)cccc3Cl)o2)CC1	> 42 µM (inactive)
CC(C)Oc1ccc(CCC(=O)NNC(=O)c2ccccc2C(=O)O)cc1	> 42 µM (inactive)
